Measurements published in patent US8486918B2, “Phenyl oxadiazole derivatives as sphingosine 1-phosphate (S1P) receptor” (Allergan, Inc., priority 2010, dated 2013).

molecular target: T1, human S1P1 receptor (Homo sapiens, UniProt P21453); test: GTP γ35S binding assay for S1P1 activity; assay type: biochemical; details: membranes of cells stably expressing the S1P1 receptor, test concentrations 0.08 to 5,000 nM
T1 construct: expressed in transfected cells; membranes used
Procedure: Compounds were synthesized and tested for S1P1 activity using the GTP γ^35S binding assay. These compounds may be assessed for their ability to activate or block activation of the human S1P1 receptor in cells stably expressing the S1P1 receptor.
GTP γ^35S binding was measured in the medium containing (mM) HEPES 25, pH 7.4, MgCl2 10, NaCl 100, dithitothreitol 0.5, digitonin 0.003%, 0.2 nM GTP γ^35S, and 5 μg membrane protein in a volume of 150 μl. Test compounds were included in the concentration range from 0.08 to 5,000 nM unless indicated otherwise. Membranes were incubated with 100 μM 5′-adenylylimmidodiphosphate for 30 min, and subsequently with 10 μM GDP for 10 min on ice. Drug solutions and membrane were mixed, and then reactions were initiated by adding GTP γ^35S and continued for 30 min at 25° C. Reaction mixtures were filtered over Whatman GF/B filters under vacuum, and washed three times with 3 mL of ice-cold buffer (HEPES 25, pH7.4, MgCl2 10 and NaCl 100). Filters were dried and mixed with scintillant, and counted for ^35S activity using a β-counter. Agonist-induced GTP γ^35S binding was obtained by subtracting that in the absence of agonist. Binding data were analyzed using a non-linear regression method. In case of antagonist assay, the reaction mixture contained 10 nM S1P in the presence of test antagonist at concentrations ranging from 0.08 to 5000 nM.

T1 sequence (P21453 whole entry): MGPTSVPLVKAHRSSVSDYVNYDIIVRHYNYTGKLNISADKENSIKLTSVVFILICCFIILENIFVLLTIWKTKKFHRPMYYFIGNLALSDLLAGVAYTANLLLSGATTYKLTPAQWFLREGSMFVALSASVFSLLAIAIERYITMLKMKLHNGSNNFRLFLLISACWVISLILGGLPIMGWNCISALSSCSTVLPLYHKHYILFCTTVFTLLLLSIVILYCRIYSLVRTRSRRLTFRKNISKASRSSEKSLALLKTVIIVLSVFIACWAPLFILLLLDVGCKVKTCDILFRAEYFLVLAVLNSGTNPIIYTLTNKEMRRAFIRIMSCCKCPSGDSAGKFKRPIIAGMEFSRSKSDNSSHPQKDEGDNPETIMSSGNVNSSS

| SMILES | EC50 [nM] |
| --- | --- |
| CCCc1cccc(OC(c2cccc(Cl)c2)c2nc(-c3ccc(CNCCC(=O)O)cc3)no2)c1 (centres unmarked) [3-[(4-{5-[(3-chlorophenyl)(3-propylphenoxy)methyl]-1,2,4-oxadiazol-3-yl}benzyl)amino]propanoic acid] | 2100 |
| O=C(O)CCNCc1ccc(-c2noc(C(Oc3cccc(Cl)c3)c3ccccc3Cl)n2)cc1 (centres unmarked) [Compound 2, 3-[(4-{5-[(3-chlorophenoxy)(2-chlorophenyl)methyl]-1,2,4-oxadiazol-3-yl}benzyl)amino]propanoic acid] | 2120 |
| CCCc1ccc(OC(c2cccc(Cl)c2)c2nc(-c3ccc(CNCCC(=O)O)cc3)no2)cc1 (centres unmarked) [Compound 6, 3-[(4-{5-[(3-chlorophenyl)(4-propylphenoxy)methyl]-1,2,4-oxadiazol-3-yI}benzyl)amino]propanoic acid] | 1600 |

The next compounds have a lower EC50 than those just listed; values first:

| EC50 [nM] | SMILES |
| --- | --- |
| 146 | Cc1ccc(SC(c2nc(-c3ccc(CNCCC(=O)O)cc3)no2)c2ccccc2Cl)cc1C (centres unmarked) [Compound 5, 3-{[4-(5-{(2-chlorophenyl)[(3,4-dimethylphenyl)thio]methyl}-1,2,4-oxadiazol-3-yI)benzyl]amino}propanoic acid] |
| 1080 | CCc1ccc(OC(c2cccc(Cl)c2)c2nc(-c3ccc(CNCCC(=O)O)cc3)no2)cc1 (centres unmarked) [Compound 7, 3-[(4-{5-[(3-chlorophenyl)(4-ethylphenoxy)methyl]-1,2,4-oxadiazol-3-yI}benzyl)amino]propanoic acid] |
| 420 | Cc1ccc(OC(c2cccc(Cl)c2)c2nc(-c3ccc(CNCCC(=O)O)cc3)no2)cc1 (centres unmarked) [Compound 8, 3-[(4-{5-[(3-chlorophenyl)(4-methylphenoxy)methyl]-1,2,4-oxadiazol-3-yl}benzyl)amino]propanoic acid] |
| 209 | COc1ccc(OC(c2nc(-c3ccc(CNCCC(=O)O)cc3)no2)c2ccccc2Cl)cc1C (centres unmarked) [Compound 10, 3-[(4-{5-[(2-chlorophenyl)(4-methoxy-3-methylphenoxy)methyl]-1,2,4-oxadiazol-3-yl}benzyl)amino]propanoic acid] |
| 29.9 | Cc1ccc(SC(c2cccc(Cl)c2)c2nc(-c3cc(C)c(OCC(O)CO)c(C)c3)no2)cc1C (centres unmarked) [Compound 11, 3-[4-(5-{(3-chlorophenyl)[(3,4-dimethylphenyl)thio]methyl}-1,2,4-oxadiazol-3-yl)-2,6-dimethylphenoxy]propane-1,2-diol] |
